# Results taken from publication PMC8327344, “Regulation of a pentameric ligand-gated ion channel by a semiconserved cationic lipid-binding site” (The Journal of Biological Chemistry, 2021).
# Columns and labels:
# ELIC W206A = target: T1, ELIC W206A (Dickeya chrysanthemi, UniProt P0C7B7, INS163G/W205A); assay: FlexStation membrane potential dye assay, GABA-elicited responses; assay type: cell-based, D. didantii; conditions: HEK293 cells, up to 100 mM GABA
# T1 construct: expressed in transfected cells; host or cells: HEK293
# Method: (§1) These methods were similar to those previously described ([55]). Briefly, ELIC cDNA was transfected into HEK293 cells, and these were then grown for 2 to 3 days in a 96-well plate. Then blue fluorescent membrane potential dye (Molecular Devices Ltd) diluted in Flex buffer (10 mM HEPES, 115 mM NaCl, 1 mM KCl, 1 mM CaCl2, 1 mM MgCl2, 10 mM glucose, pH 7.4) was added to each well. After incubation at 37 °C for 30 min, plates were placed in a FlexStation (Molecular Devices Ltd) and fluorescence measured every 2 s for 120 s. […] Concentration–response data were fitted to the four-parameter logistic equation, F = Fmin + (Fmax − Fmin)/(1 + 10^log(EC50-[A])∗^nH), where [A] is the concentration of agonist, nH is the Hill coefficient, and Fmax and Fmin are the maximal and minimal fluorescence levels for each dataset, using Prism software (GraphPad). WT and mutant responses were compared using an ANOVA test followed by Dunnett’s multiple comparison test.
# ELIC W206F = target: T2, ELIC W206F (Dickeya chrysanthemi, UniProt P0C7B7, INS163G/W205F); assay: as above; assay type: cell-based, D. didantii; conditions: HEK293 cells, n = 4
# T2 construct: expressed in transfected cells; host or cells: HEK293
# Method: as §1
# ELIC W206Y = assay: as above; assay type: cell-based, D. didantii; conditions: HEK293 cells
# Method: as §1
# wild-type (WT) ELIC = assay: as above; assay type: cell-based, D. didantii; conditions: HEK293 cells transfected with WT ELIC
# Method: as §1
# [1] = test system: ELIC with fluorinated Trp at W206; assay: Two-electrode voltage clamp of oocytes, noncanonical fluorinated Trp (FW, F2W, F3W) at position 206; assay type: cell-based, D. didantii; conditions: F3W at position 206, compared with WT
# Method: Site-directed mutagenesis was performed using the QuikChange strategy (Stratagene) using ELIC in pGEM-HE. Mutations were confirmed by sequencing. For noncanonical amino acid mutants, the site of interest was mutated to the TAG stop codon. Plasmids were linearized and receptor mRNA prepared by in vitro runoff transcription using the Ambion T7 mMessage mMachine kit. Noncanonical amino acids ligated to tRNA were prepared as previously described ([56]).
# Stage V-VI oocytes of Xenopus laevis were harvested and injected with mRNAs as described previously. For experiments with WT channels and conventional mutants, each cell received a single injection of 10 to 25 ng of receptor mRNA approximately 24 h before recording. For nonsense suppression experiments, each cell was injected with 50 to 100 ng each of receptor mRNA and appropriate tRNA approximately 48 h before recording. Injection volumes for each injection session were 50 to 100 nl per cell.
# Two-electrode voltage clamping of Xenopus oocytes was performed using an OpusXpress system (Axon Instruments, Inc). All experiments were performed at 22 to 25 °C. […] The holding potential was −60 mV unless otherwise specified. Concentration–response curves and parameters were obtained using Prism software (GraphPad, PRISM).
# [2] = test system: α1β2 εF260E mutant GABAAR; assay: Two electrode voltage clamp recordings from Xenopus oocytes; assay type: cell-based, human; conditions: ε F260E compared with WT
# Method: Mutations were engineered with a QuikChange strategy and confirmed by sequencing. For functional expression of GABAAR containing an ε subunit, the mRNAs encoding for the human α1 (NP_000797.2), β2 (NP_068711.1) and ε subunits were mixed in a 1:1:0.1 ratio in nuclease-free distilled water at a concentration of 0.4 μg/μl (n.b. the definitive stoichiometry of the expressed receptors was not determined). […] Injection of 2 ng of mRNA per oocyte was done using the automated injection system Roboinject (Multi Channel Systems). Oocytes were incubated at 18 °C for 2 to 5 days prior to conducting the electrophysiological recordings using the two electrode automated voltage clamp system (HiClamp apparatus, Multi Channel Systems). […] Data acquired with the HiClamp were analyzed using the manufacturer’s software (Multi Channel Systems). Concentration–activation curves were fitted with the empirical Hill equation. Data are presented as the mean ± standard deviation (SD). Statistical comparison between WT and mutants was done with an unpaired, two-tailed t test with Welch’s correction for unequal sample size and variance.
compound,measurement,setting,value
NCCCC(=O)O [GABA],GABA-elicited response,ELIC W206A,no response
same,EC50,ELIC W206F,2000 µM
same,pEC50,ELIC W206F,2.694 ± 0.08
same,maximal response,ELIC W206Y,~60 % of WT
same,Hill coefficient,wild-type (WT) ELIC,2.2 ± 1.4
same,change of EC50-values,[1],increased EC50-values
same,decrease of apparent GABA affinity,[2],threefold
